Test results taken from patent US8426429B2, “2-amino-quinazoline derivatives useful as inhibitors of β-secretase (BACE)” (Jansssen Pharmaceutica N.V., priority 2004, dated 2013).

Tests used:
β-secretase (BACE) [1] = molecular target: T1, β-secretase (BACE) (Homo sapiens, UniProt P56817); assay: BACE % Inhibition Assay ((Aedens)-[…]-(Dabcyl K-amide) substrate); type: biochemical; settings: % error ±10%
T1 construct: purchased Panvera
Protocol: The substrate stock solution was prepared in DMSO as a 10 mg/mL solution. The substrate working solution was prepared by diluting the 10 mg/mL stock solution with substrate assay buffer to a final concentration of […]. The β-secretase (BACE) working solution was prepared by diluting a 0.83 mg/mL BACE stock solution with enzyme assay buffer to a final concentration of 4 μg/mL.
Test compounds were dissolved in DMSO to 10 mM.
The screening procedure for this assay was as follows: 15 μL of BACE working solution was pipetted into each well of a 96-well plate. To each well was then pipetted 2 μL of test compound at the selected concentration. Test compound and BACE were then mixed with a pipettor and incubated for 20 min at room temperature. To each well was then added 10 μL of the substrate working solution. The plates were then incubated for 1 hour at room temperature.
The procedure for the blank was as follows. 15 μL of assay buffer was pipetted into each well to be used as a blank control. To each well was then added 2 μL of vehicle and 10 μL of substrate working solution. The plates were then incubated for 1 hour at room temperature.
The procedure for the positive control was as follows: 15 μl of BACE working solution was pipetted into each well to be used as a positive control. To each well was then pipetted 2 μL of vehicle. Vehicle and BACE were then mixed with a pipettor and incubated for 20 min at room temperature. To each well was then added 10 μL of the substrate working solution. The plates were the incubated for 1 hour at room temperature.
For test compounds, % inhibition was determined at each concentration as follows: […]

β-secretase (BACE) [2] = molecular target: T1, β-secretase (BACE); assay: BACE FS1 % Inhibition Assay; type: biochemical; settings: FS1 substrate
Procedure, shortened: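 Percent inhibition per compound concentration was referenced to vehicle-treated enzyme and no-enzyme wells. Enzyme at a 4 μg/mL working stock plus compound was mixed for 20 min at room temperature before the FS1 substrate (300 μg/mL working stock) was added for a 1 h room-temperature reaction.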

T1 sequence (P56817 46-501): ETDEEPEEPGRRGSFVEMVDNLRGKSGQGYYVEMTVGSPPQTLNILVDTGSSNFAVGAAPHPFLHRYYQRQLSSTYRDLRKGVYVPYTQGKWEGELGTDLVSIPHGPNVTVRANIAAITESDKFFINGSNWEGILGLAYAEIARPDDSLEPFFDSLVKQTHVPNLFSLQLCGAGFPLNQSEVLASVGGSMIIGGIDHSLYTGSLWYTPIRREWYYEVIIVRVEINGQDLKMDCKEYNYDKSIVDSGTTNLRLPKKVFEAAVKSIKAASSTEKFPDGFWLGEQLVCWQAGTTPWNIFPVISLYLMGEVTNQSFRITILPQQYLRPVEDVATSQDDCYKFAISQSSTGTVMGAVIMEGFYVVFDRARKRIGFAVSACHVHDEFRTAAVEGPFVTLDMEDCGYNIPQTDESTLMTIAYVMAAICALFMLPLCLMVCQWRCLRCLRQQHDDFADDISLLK

SMILES	% Inhibition (β-secretase (BACE) [1]; 3 μM compound) [%]	% Inhibition (β-secretase (BACE) [1]; 10 μM compound) [%]	% Inhibition (FS) (β-secretase (BACE) [2]; 0.3 μM compound) [%]	% Inhibition (FS) (β-secretase (BACE) [2]; 1 μM compound) [%]	% Inhibition (FS) (β-secretase (BACE) [2]; 3 μM compound) [%]	other results
CCOC(=O)CCN1Cc2cc(Oc3ccccc3)ccc2N=C1N [Compound 65]	<30	<30				
CN(C(=O)[C@@H]1CCC[C@@H]1N1Cc2cc(Oc3ccccc3)ccc2N=C1N)C1CCCCC1 [Compound 72]	<30	<30				
CN(C(=O)[C@@H]1CC[C@H](N2Cc3cc(Oc4ccccc4)ccc3N=C2N)C1)C1CCCCC1 [Compound 77]	<30	<30				
CCN(CC)CCN1Cc2cc(Oc3ccccc3)ccc2N=C1N [Compound 79]	<30	<30				
CN(C(=O)[C@H]1CCCC[C@H]1N1Cc2cc(Oc3ccccc3)ccc2N=C1N)C1CCCCC1 [Compound 81]	<30	<30				
CN(C(=O)[C@@H]1CCCC[C@@H]1N1Cc2cc(Oc3ccccc3)ccc2N=C1N)C1CCCCC1 [Compound 87]	<30	<30				
CN(C(=O)[C@@H]1CCCN1C(=O)CN1Cc2cc(Oc3ccccc3)ccc2N=C1N)C1CCCCC1 [Compound 88]	<30	<30				
CN(C(=O)c1cc(CN2Cc3cc(Oc4ccccc4)ccc3N=C2N)ccn1)C1CCCCC1 [Compound 89]	77	81				
CC(C)(C)OC(=O)N1CCC(N2Cc3cc(Oc4ccccc4)ccc3N=C2N)C1 (centres unmarked) [Compound 93]	<30	<30				
CN(C(=O)c1cccc(N2Cc3cc(Oc4ccccc4)ccc3N=C2N)c1)C1CCCCC1 [Compound 94]	<30	<30				
CN(C(=O)c1ccc(CN2Cc3cc(Oc4ccccc4)ccc3N=C2N)cc1)C1CCCCC1 [Compound 97]	<30	53				
CN(C(=O)C1CCC(CN2Cc3cc(Oc4ccccc4)ccc3N=C2N)CC1)C1CCCCC1 (centres unmarked) [Compound 100]	<30	<30				
Cc1ccc(S(=O)(=O)NCCN2Cc3cc(Oc4ccccc4)ccc3N=C2N)cc1 [Compound 109]	<30	58				
CN(Cc1csc(-c2ccccc2)n1)C(=O)CC[C@@H](C1CCCCC1)N1Cc2cc(-c3ccccc3F)ccc2N=C1N [Compound 722]			35	35	78	
CN(Cc1cc(-c2ccccc2)on1)C(=O)CC[C@@H](C1CCCCC1)N1Cc2cc(-c3ccccc3F)ccc2N=C1N [Compound 724]			38	<30	65	
CN(CCc1ccccc1)C(=O)CC[C@@H](C1CCCCC1)N1Cc2cc(-c3ccccc3F)ccc2N=C1N [Compound 727]			46	80		
CCOC(=O)C1CCC(N(C)C(=O)CCC(C2CCCCC2)N2Cc3cc(Oc4ccccc4)ccc3N=C2N)CC1 (centres unmarked) [Compound 737]						% Inhibition (FS) (β-secretase (BACE) [2]; 0.3 μM compound, 0.3 µM): 22%; % Inhibition (FS) (β-secretase (BACE) [2]; 1 μM compound, 1 µM): 34%; % Inhibition (FS) (β-secretase (BACE) [2]; 3 μM compound, 3 µM): 97%
CN(C(=O)CCC(C)(C)N1Cc2cc(Oc3ccccc3)ccc2N=C1N)C1CCCCC1 [Compound 738]			14	28	61	
CN(C(=O)CCC(C1CCCCC1)N1Cc2cc(Oc3ccccc3)ccc2N=C1N)C1(C(=O)O)CCCCC1 (centres unmarked) [Compound 741]			−48	−38	−25	

SMILES	% Inhibition (β-secretase (BACE) [1]; 3 μM compound) [%]	% Inhibition (β-secretase (BACE) [1]; 10 μM compound) [%]	% Inhibition (FS) (β-secretase (BACE) [2]; 0.3 μM compound) [%]	% Inhibition (FS) (β-secretase (BACE) [2]; 1 μM compound) [%]	% Inhibition (FS) (β-secretase (BACE) [2]; 3 μM compound) [%]	other results
CN(C(=O)CCC(C1CCOCC1)N1Cc2cc(Oc3ccccc3)ccc2N=C1N)C1CCC(C(=O)O)CC1 (centres unmarked) [Compound 743]					130	
CN(C(=O)CC[C@@H](C1CCOCC1)N1Cc2cc(Oc3ccccc3)ccc2N=C1N)[C@H]1CC[C@@H](C(=O)O)CC1 [Compound 745, (S)-Enantiomer of 4-cis-{[4-(2-Amino-6-phenoxy-4H-quinazolin-3-yl)-4-(tetrahydro-pyran-4-yl)-butyryl]-methyl-amino}-cyclohexanecarboxylic acid]						% Inhibition (FS) (β-secretase (BACE) [2]; 0.3 μM compound, 0.3 µM): 115%; % Inhibition (FS) (β-secretase (BACE) [2]; 1 μM compound, 1 µM): 114%; inhibition at 3 µM (β-secretase (BACE) [2]; 3 μM compound, read-out: % Inhibition (FS)): 114%
CN(C(=O)CC[C@@H](C1CCOCC1)N1Cc2cc(Oc3ccccc3)ccc2N=C1N)[C@H]1CC[C@@H](C(=O)O)CC1 [Compound 748]						% Inhibition (FS) (β-secretase (BACE) [2]; 0.3 μM compound, 0.3 µM): 20%; % Inhibition (FS) (β-secretase (BACE) [2]; 1 μM compound, 1 µM): 71%; % Inhibition (FS) (β-secretase (BACE) [2]; 3 μM compound, 3 µM): 97%
CN(C(=O)CC[C@@H](C1CCCCC1)N1Cc2ccc(Oc3ccccc3)cc2N=C1N)C1CCCCC1 [Compound 754]			8	35	89	
CN(C(=O)CCC(C1CCCCC1)N1Cc2cc(Oc3ccccc3)ccc2N=C1N)C1CCC(C(=O)OCc2ccccc2)CC1 (centres unmarked) [Compound 760]			<30	44	89	
CCOC(=O)C1CCC(N(C)C(=O)CCC(C2CCCCC2)N2Cc3cc(Oc4ccccc4)ccc3N=C2N)CC1 (centres unmarked) [Compound 763]						% Inhibition (FS) (β-secretase (BACE) [2]; 0.3 μM compound, 0.3 µM): <30%; % Inhibition (FS) (β-secretase (BACE) [2]; 1 μM compound, 1 µM): 84%
CNC(=O)C1CCC(N(C)C(=O)CCC(C2CCCCC2)N2Cc3cc(Oc4ccccc4)ccc3N=C2N)CC1 (centres unmarked) [Compound 765]			<30	56	97	
CN(C(=O)CCC(C1CCCCC1)N1Cc2cc(Oc3ccccc3)ccc2N=C1N)c1ccc(C(=O)O)cc1 (centres unmarked) [Compound 766]			<30	<30	<30	
CN(CC(=O)O)C(=O)CCC(C1CCCCC1)N1Cc2cc(Oc3ccccc3)ccc2N=C1N (centres unmarked) [Compound 767]			<30	71		
CN(C(=O)CCC(C1CCCCC1)N1Cc2cc(Oc3ccccc3)ccc2N=C1N)C1CCC(C#N)CC1 (centres unmarked) [Compound 769]			<30	61		
CN(C(=O)CCC(C1CCCCC1)N1Cc2cc(Oc3ccccc3)ccc2N=C1N)C1CCC(c2nn[nH]n2)CC1 (centres unmarked) [Compound 770]			<30	<30	<30	
NC1=Nc2ccc(Oc3ccccc3)cc2CN1[C@@H](CCC(=O)N[C@@H](CO)C(=O)O)C1CCOCC1 [Compound 771]			46	79	105	
COC(=O)Cc1cccc(CN(C)C(=O)CCC(C2CCCCC2)N2Cc3cc(Oc4ccccc4)ccc3N=C2N)c1 (centres unmarked) [Compound 775]			<30	62		
CN(Cc1cccc(CC(=O)O)c1)C(=O)CCC(C1CCCCC1)N1Cc2cc(Oc3ccccc3)ccc2N=C1N (centres unmarked) [Compound 778]			<30	77		
COC(=O)[C@@H](COCc1ccccc1)N(C)C(=O)CC[C@@H](C1CCCCC1)N1Cc2cc(Oc3ccccc3)ccc2N=C1N [Compound 779]			102	107	120	
COC(=O)C(COCc1ccccc1)N(C)C(=O)CCC(C1CCCCC1)N1Cc2cc(Oc3ccccc3)ccc2N=C1N (centres unmarked) [Compound 780]			69	97		
NC1=Nc2ccc(Oc3ccccc3)cc2CN1[C@@H](CCC(=O)N[C@@H](COCc1ccccc1)C(=O)O)C1CCOCC1 [Compound 782]			104	107	113	
COC(=O)[C@H](COCc1ccccc1)N(C)C(=O)CC[C@@H](C1CCOCC1)N1Cc2cc(Oc3ccccc3)ccc2N=C1N [Compound 786]			97	105	114	
